According to patent US12024507B2, “Compounds as GLP-1R agonists” (Terns Pharmaceuticals, Inc., priority 2021, dated 2024):

Legend:
[1] = Metabolic stability in rat hepatocytes; type: in vitro ADME; settings: cryopreserved hepatocytes, 1×10^6 cells/mL; for CLint scaled at 1 μM: intrinsic clearance; for half-life at 1 μM: read-out: Rat T1/2
Procedure: (§1) Test compounds were incubated in rat and human hepatocytes and stability was assessed from the substrate […] approach. Test compounds were dissolved in dimethyl sulfoxide (DMSO) to create a 10 mM Stock, and then further diluted to create a 1000×Working Stock of 1 mM with DMSO in 96-well plates for test compounds and the positive control (midazolam). Vials containing cryopreserved hepatocytes were removed from the liquid nitrogen tank and immediately immersed in a 37° C. water bath. The vials were shaken gently until the contents had thawed and were then immediately emptied into 48 mL of pre-warmed HT Medium in a 50 mL conical tube. Cells remaining in the vial were resuspended with 1.0 mL of pre-warmed HT Medium and added to the conical tube. The tube was capped and then gently inverted several times to resuspend the hepatocytes. The cell suspension was centrifuged at 50×g at room temperature for 5 minutes and the supernatant discarded. The cell pellet was loosened by gently swirling the centrifuge tube and was re-suspended in 4 mL of warm Dulbecco's Modified Eagle medium (DMEM). Cell density was determined by a cell counter by Nexcelom, and DMEM medium was added to obtain a target density of 1×10^6 cells/mL. The assay was carried out in 96-well microtiter plates. Test Compounds were incubated at 1 μM with 1×10^6 cells/mL hepatocytes in DMEM for 0, 30, 60, 120 and 240 minutes. The incubation was carried out with gentle shaking at 37° C. under a humid atmosphere of 95% air/5% CO2. The volume of the incubation mixture was 37 μL with a final 0.1% DMSO. At each of the time points, the incubation was stopped by adding 150 μL quenching solution (100% acetonitrile, 0.1% formic acid containing bucetin as an internal standard for positive ESI mode). Subsequently, the mixtures were vortexed for 20 min and centrifuged at 4,000 RPM at 10° C. The supernatant (80 μL) was transferred to a clean 96-well plate and analyzed by LC-MS/MS. Midazolam at 1 μM with a final 0.1% DMSO was included as a positive control to verify assay performance. The percent parent remaining, intrinsic and predicted hepatic clearance and t1/2 were calculated. All samples were analyzed by LC-MS/MS using an AB Sciex API 4000 instrument, coupled to a Shimadzu LC-20AD LC Pump system. Separation was achieved using a Waters Atlantis T3 dC18 reverse phase HPLC column (20 mm×2.1 mm) at a flow rate of 0.5 mL/min. The mobile phase consisted of 0.1% formic acid in water (solvent A) and 0.1% formic acid in 100% acetonitrile (solvent B). Elution conditions are detailed below.
(§2) The ion optics of each test compound were optimized for their declustering potential (DP), […] (CE), collision-cell exit potential (CXP) and used in a selected ion monitoring experiment in the positive ion mode. The peak area ratio of each test compound to internal standard was then evaluated for stability. The extent of metabolism was calculated based on the disappearance of the test compound, compared to its initial concentration. The initial rates of clearance of the test compound were calculated using the linear regression plot of semi-log % remaining of the compound versus time.
(§3) The predicted hepatic clearance (CLhep) was calculated using the well stirred method with the following formula with CLint(in vivo) normalized based on liver weight: CLint(in vivo)=CLint×Hepatocellularity×liver weight CLhep predicted=(CLint(in vivo)×Qliver)/(CLint(in vivo)+Qliver) Where Qliver ((ml/min/kg) is Liver Blood Flow
(§4) The relevant physiological parameters of liver weight, blood flow, and hepatocellularity for various species are listed below:
(§5) Results are presented in the Table B3 below for the intrinsic clearance (mL/min/kg) and half-life (t1/2).

human GLP-1R receptor = target: T1, human GLP-1R receptor (Homo sapiens, UniProt P43220); test: GLP-1R cell assay (cAMP TR-FRET, low expression CHO-K1_hGLP-1Rlow_clone10 cell line); type: cell-based; settings: CHO-K1_hGLP-1Rlow_clone10 cells, relative to control GLP-1 peptide agonist, read-out: GLP1 EC50
T1 construct: expressed in transfected cells
Procedure: Stable cell lines expressing high and low GLP-1R surface expression were generated in CHO-K1 cells transfected (Fugene 6) with a puromycin selectable DNA plasmid encoding human GLP-1R receptor (accession number: NM_002062.5) under control of an EF1A promoter. Transfected cells were seeded into 24-well plates (9,000 cells/well) containing complete medium and incubated in a humidified incubator at 37° C. with 5% carbon dioxide. After overnight incubation, medium was replaced with complete medium supplemented with puromycin (6 μg/mL) and refreshed every 2-3 days to select for stably transfected cells. Individual pools of selected cells were expanded prior to analysis for responsiveness to GLP-1 control peptide using a TR-FRET assay to detect cAMP (LANCE Ultra cAMP Assay, Perkin Elmer). Briefly, cells were collected in Versene solution, plated in 384-well plates (1,000 cells/well) and combined with serially diluted GLP-1R control peptide (10 nL) using an acoustic dispenser (ECHO). Plates were incubated for 30 minutes at 25° C. prior to the addition of EU-cAMP tracer (5 μL) and Ulight-anti-cAMP (5 μL) reagents to each well, followed by 15 minutes incubation at 25° C. TR-FRET signal was detected using an EnVision Multimode Plate Reader (excitation=320 nm; emission=615 and 655 nm). Dose-response curves were used to generate EC50 values as a measure of responsiveness to the GLP-1R control peptide. Selected cell lines were monitored for responsiveness over multiple passages to ensure stability. […] Briefly, GLP-1R expression was analyzed by flow cytometry using a fluorescein-labeled Exendin-4 peptide fluorescent probe (FLEX). Cells were harvested in Versene solution and washed 3-times with PBS+0.5% BSA before incubation with FLEX reagent (10 μM) for 2 hours at room temperature. After incubation, cells were washed 3-times in PBS+0.5% BSA before final resuspension in PBS prior to analysis by flow cytometry to measure FLEX mean fluorescence intensity (MFI) as a measure of GLP-1R expression on the cell surface.
For compound testing in the CHO-K1_hGLP-1Rlow_clone10 cell line, cells were seeded in 384-well plates (1,000 cells/well). Test compounds were serially diluted in DMSO (10-point, 3-fold dilution), added to wells using an ECHO dispenser (10 nL/well) and plates were centrifuged for 1 min and agitated for 2 min at room temperature prior to 30-minute incubation at 25° C. After incubation, Eu-cAMP (5 μL) and Ulight-anti-cAMP (5 μL) reagents were added to each well, followed by centrifugation for 1 minute, agitation for 2 minutes at room temperature, and final incubation of the plates at 25° C. for 15 minutes. Plates were read using an EnVision microplate reader (excitation=320 nm; emission=615 and 655 nm). Dose-response curves were generated from duplicate wells based on percent activation calculated relative to a control GLP-1 peptide agonist that was run in parallel. EC50 values were determined by fitting percent activation as a function of compound concentration using the Hill equation (XLfit).
The compounds tested were compound samples prepared according to the General Procedures described in the Examples section.

[2] = Metabolic stability in human hepatocytes; type: in vitro ADME; settings: cryopreserved hepatocytes, 1×10^6 cells/mL; for CLint scaled at 1 μM: intrinsic clearance; for half-life at 1 μM: read-out: Human T1/2
Procedure: as §1, §2, §3, §4, §5

T1 sequence (P43220 24-463): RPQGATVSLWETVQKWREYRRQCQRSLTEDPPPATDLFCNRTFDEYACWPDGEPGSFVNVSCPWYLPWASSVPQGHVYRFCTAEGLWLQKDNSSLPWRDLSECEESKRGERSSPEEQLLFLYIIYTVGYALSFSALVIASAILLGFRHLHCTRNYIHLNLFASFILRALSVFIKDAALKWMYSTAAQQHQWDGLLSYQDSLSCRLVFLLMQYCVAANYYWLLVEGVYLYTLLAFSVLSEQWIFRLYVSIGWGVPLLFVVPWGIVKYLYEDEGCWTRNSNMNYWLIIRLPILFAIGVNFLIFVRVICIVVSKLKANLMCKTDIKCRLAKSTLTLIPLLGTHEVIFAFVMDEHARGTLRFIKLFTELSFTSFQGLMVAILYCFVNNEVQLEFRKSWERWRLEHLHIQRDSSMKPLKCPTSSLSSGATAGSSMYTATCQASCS

CLint scaled at 1 μM [1] | half-life at 1 μM [1] | EC50 (human GLP-1R receptor) | CLint scaled at 1 μM [2] | half-life at 1 μM [2] | Structure (SMILES)
111 ± 2.29 mL/min/kg | 0.501 ± 0.0103 h | 25.2 nM | 35.8 ± 1.06 mL/min/kg | 1.12 ± 0.0332 h | N#Cc1ccc(COc2cccc(C3CCN(Cc4nc5ccc(-c6nc(=O)[nH]o6)cc5n4Cc4cncs4)CC3)n2)c(F)c1 [Compound 13, 3-fluoro-4-(((6-(1-((6-(3-oxo-2,3-dihydro-1,2,4-oxadiazol-5-yl)-1-(thiazol-5-ylmethyl)-1H-benzo[d]imidazol-2-yl)methyl)piperidin-4-yl)pyridin-2-yl)oxy)methyl)benzonitrile]
46.5 ± 2.11 mL/min/kg | 1.19 ± 0.054 h | 15 nM | 7.99 ± 0.99 mL/min/kg | 5.02 ± 0.623 h | N#Cc1ccc(COc2cccc(C3CCN(Cc4nc5ccc(-c6nnn[nH]6)cc5n4C[C@@H]4CCO4)CC3)n2)c(F)c1 [Compound 8]
